# Where two headings read alike, the source gives them in different places.
# Experiments:
# Tetrahymena pyriformis W = test: Antiprotozoal activity, serial dilution method; assay type: cell-based
# Description: Antiprotozoal activity of compound (I) was assayed with Tetrahymena pyriformis W as the test organism and a medium composed of 20 g tryptose-peptone (Difco Co.), 1 g yeast extract, 2 g glucose, 1000 ml distilled water, 10 ml 1 M phosphate buffer (pH 7.0) as the assay medium. The microorganism was incubated at 28° C. for 44 to 48 hours and the growth inhibitory activity of compound (I) was assayed by the serial dilution method.
# [1] = test system: melanoma B-16 tumor cells; test: Antitumor activity: life span prolongation in mice with intraperitoneally transplanted melanoma B-16 (NCI protocol); assay type: in vivo; conditions: intraperitoneally once daily for 9 days
# Description: Therapeutic tests were carried out in mice according to NCI-protocol 1,300, Cancer Chemother, Reports, Part 3, 1972, Vol. 3, No. 2, in which melanoma B-16 tumor cells had been intraperitoneally transplanted, compound (I) being administered intraperitoneally once daily for 9 consecutive days.
# [2] = 28° C., 44 to 48 hours, pH 7.0, read-out: Antiprotozoal activity MIC
SMILES,MIC (Tetrahymena pyriformis W; [2]),Antitumor activities B-16 (T/C %) ([1]; 50 μg/kg),Antitumor activities B-16 (T/C %) ([1]; 100 μg/kg),also measured
"CCOCCOCCOc1cc2cc(c1Cl)N(C)C(=O)CC(OC(=O)C(C)C)C1(C)OC1C(C)C1CC(O)(NC(=O)O1)C(OC)C=CC=C(C)C2 (centres unmarked) [C20-2-(2-ethoxyethoxy)ethyl ether, PDM-3-C20-2-(2-ethoxyethoxy)ethyl ether]",2 µg/mL,–,–,–
"CCOc1cc2cc(c1Cl)N(C)C(=O)CC(OC(=O)C(C)C)C1(C)OC1C(C)C1CC(O)(NC(=O)O1)C(OC)C=CC=C(C)C2 (centres unmarked) [C20 -ethoxy ether, PDM-3-C20-ethyl ether]",–,–,–,"MIC (Tetrahymena pyriformis W; pH 7, read-out: Antiprotozoal activity MIC): ≤ 1 µg/mL"
"CCOC(=O)CC(=O)COc1cc2cc(c1Cl)N(C)C(=O)CC(OC(=O)C(C)C)C1(C)OC1C(C)C1CC(O)(NC(=O)O1)C(OC)C=CC=C(C)C2 (centres unmarked) [C20 -γ-ethoxycarbonylacetonyl ether, PDM-3-C20 -γ-ethoxycarbonylacetonyl ether]",4 µg/mL,–,–,–
"CCOC(COc1cc2cc(c1Cl)N(C)C(=O)CC(OC(=O)C(C)C)C1(C)OC1C(C)C1CC(O)(NC(=O)O1)C(OC)C=CC=C(C)C2)OCC (stereo not drawn) [PDM-3-C20-(β,β-diethoxy)ethyl ether, PDM-3-C20 -β,β-diethoxyethyl ether]",–,211%,240%,Antitumor activities B-16 (T/C %) ([1]; 25 μg/kg): 194%
"COC1C=CC=C(C)Cc2cc(OCC(=O)c3ccccc3)c(Cl)c(c2)N(C)C(=O)CC(OC(=O)C(C)C)C2(C)OC2C(C)C2CC1(O)NC(=O)O2 (centres unmarked) [PDM-3-C20-phenacylether, PDM-3-C20-phenacyl ether]",–,188%,176%,Antitumor activities B-16 (T/C %) ([1]; 200 μg/kg): 211%; Antitumor activities B-16 (T/C %) ([1]; 400 μg/kg): 203%
"CCOC(=O)COc1cc2cc(c1Cl)N(C)C(=O)CC(OC(=O)C(C)C)C1(C)OC1C(C)C1CC(O)(NC(=O)O1)C(OC)C=CC=C(C)C2 (centres unmarked) [C20 -ethoxycarbonylmethyl ether, PDM-3-C20-ethoxycarbonylmethyl ether]",1 to 2 µg/mL,–,–,–
"C=CCOc1cc2cc(c1Cl)N(C)C(=O)CC(OC(=O)C(C)C)C1(C)OC1C(C)C1CC(O)(NC(=O)O1)C(OC)C=CC=C(C)C2 (centres unmarked) [C20 -allyl ether, PDM-3-C20-allyl ether]",≤ 1 µg/mL,–,–,–
"COC1C=CC=C(C)Cc2cc(OCc3ccccc3)c(Cl)c(c2)N(C)C(=O)CC(OC(=O)C(C)C)C2(C)OC2C(C)C2CC1(O)NC(=O)O2 (centres unmarked) [PDM-3-C20-benzylether, PDM-3-C20-benzyl ether]",≤ 1 µg/mL,220%,234%,Antitumor activities B-16 (T/C %) ([1]; 25 μg/kg): 182%
COC1C=CC=C(C)Cc2cc(OCC(=NNC(=O)c3ccncc3)c3ccccc3)c(Cl)c(c2)N(C)C(=O)CC(OC(=O)C(C)C)C2(C)OC2C(C)C2CC1(O)NC(=O)O2 (centres unmarked) [PDM-3-C20-(2-isonicotinoylhydrazono-2-phenyl)ethyl ether],2 to 4 µg/mL,–,–,–
